Test results as given in US8569327B2, “Phenanthroindolizidine derivative and NFκB inhibitor containing same as active ingredient” (Kabushiki Kaisha Yakult Honsha, priority 2008, dated 2013).
Converted amounts (≈) assume the structure as drawn. Like-named read-outs stand apart in the source and are kept apart here.

Legend:
[1] = tested on: human colon cancer SW480 cells; assay: Inhibitory action on the proliferation of SW480 cells; type: cell-based; details: 48 hours, TetraColor ONE; for IC50: Homo sapiens, SW480
Procedure: (§1) The action of the phenanthroindolizidine alkaloid compound of the present invention on the proliferation of human colon cancer SW480 cells, HT-29 cells, and human non-small cell lung cancer A549 cells was studied. The SW480 cells were suspended in a 10% FBS/RPMI1640 and then seeded in a 96-well microplate, followed by culturing in 5% CO2 at 37° C. (2000 cells/well). The A549 cells and the HT-29 cells were each suspended in a DMEM medium containing 10% FBS, 100 U/mL penicillin, and 100 μg/mL streptomycin (10% FBS/DMEM) and a DMEM F-12 HAM medium containing 10% FBS, 100 U/mL penicillin, and 100 μg/mL streptomycin (10% FBS/DMEM F12 HAM), and then seeded in 96-well microplates, followed by culturing in 5% CO2 at 37° C. (1000 cells/well). After an overnight culture, the compound of the present invention was added, followed by further culturing for 48 hours (SW480 cells) and 96 hours (A549 cells and HT-29 cells). After culturing, the number of viable cells was counted using TetraColor ONE (Seikagaku Corporation) in accordance with the attached operating procedure. The results were expressed as the concentration of a test compound needed for 50% inhibition of the proliferation of the cells (IC50).

[2] = tested on: human colon cancer HT-29 cells; assay: Inhibitory action on the proliferation of HT-29 cells; type: cell-based; details: 96 hours, TetraColor ONE; for IC50: Homo sapiens, HT-29
Procedure: as §1

[3] = tested on: SV40 promoter; assay: SV40 promoter activity, luciferase assay in SW480/SV40-Luc cells; type: cell-based, human; details: for IC50: Homo sapiens
Excerpt: (§2) The action of the phenanthroindolizidine alkaloid compound of the present invention on the NFκB activity was studied using a luciferase assay. Human colon cancer SW480 cells were transfected with pNFκB-Luc Plasmid (Stratagene), which is a reporter vector in which a five-time tandem repeat of the NFκB responsive element (NRE) is integrated into the upstream of the luciferase gene, using Lipofectamine 2000 (Invitrogen Corporation) in accordance with the attached operating procedure. Subsequently, the cells were cultured in an RPMI1640 medium containing 10% FBS, 100 U/mL penicillin, 100 μg/mL streptomycin, and 0.5 mg/mL G418 to produce SW480 cells having the luciferase gene, the expression of which is regulated by NRE, stably introduced therein (SW480/NRE-Luc cells). Likewise, SW480 cells were transfected with pGL3-Control Vector (Promega Corporation), which is a reporter vector in which the SV40 promoter is integrated into the upstream of the luciferase gene, to produce SW480 cells having the luciferase gene, the expression of which is regulated by the SV40 promoter, stably introduced therein (SW480/SV40-Luc cells). The SW480/NRE-Luc cells or the SW480/SV40-Luc cells were suspended in an RPMI1640 medium containing 10% FBS, 100 U/mL penicillin, and 100 μg/mL streptomycin (10% FBS/RPMI1640), and then seeded in a 96-well microplate, followed by culturing under conditions of 5% CO2 and at 37° C. (5000 cells/well). After an overnight culture, the compound of the present invention was added, followed by culturing for one hour. Further, 50 ng/mL TNFα (Sigma-Aldrich Corporation) was added, followed by culturing for four hours. Subsequently, a Steady-Glo Luciferase Assay reagent (Promega Corporation) was added, and the luminescent intensity was detected by SpectraMax M5e (Molecular Devices, Inc.) to measure the intracellular luciferase activity. It is to be noted that the action of the compound of the present invention on the NFκB activity or the SV40 promoter activity was shown as IC50 values (the concentration of a test compound needed for 50% inhibition of the induction of the luciferase expression).

[4] = tested on: human non-small cell lung cancer A549 cells; assay: Inhibitory action on the proliferation of A549 cells; type: cell-based; details: 96 hours, TetraColor ONE; for IC50: Homo sapiens, A549
Procedure: as §1

[5] = tested on: NFκB; assay: Inhibitory action on the NFκB activity, luciferase assay in SW480/NRE-Luc cells; type: cell-based, human; details: for IC50: Homo sapiens
Excerpt: as §2

[6] = SW480, read-out: SV40 promoter inhibitory activity IC50
[7] = SW480, read-out: NFκB inhibitory activity IC50
[8] = SW480/SV40-Luc cells, luciferase
[9] = SW480/NRE-Luc cells, compound 1 h then 50 ng/mL TNFα 4 h, luciferase

| SMILES | IC50 [1] | IC50 [2] | IC50 [3, 6] | IC50 [4] | IC50 [5, 7] | SW480 proliferation inhibitory action IC50 [1] | HT-29 proliferation inhibitory action IC50 [2] | SV40 promoter inhibitory activity IC50 [3, 8] | A549 proliferation inhibitory action IC50 [4] | NFκB inhibitory activity IC50 [5, 9] | IC50 ([3]; SW480/SV40-Luc cells, luciferase, read-out: SV40 promoter inhibitory activity IC50) | IC50 ([5]; SW480/NRE-Luc cells, compound 1 h then 50 ng/mL TNFα 4 h, luciferase, read-out: NFκB inhibitory activity IC50) |
| --- | --- | --- | --- | --- | --- | --- | --- | --- | --- | --- | --- | --- |
| COc1cc2c3c(c4ccccc4c2cc1OC)[C@H](O)[C@@H]1CCCN1C3.Cl [Compound 1, (12aS,13S)-6,7-dimethoxy-9,10,11,12,12a,13-hexahydro-9a-aza-cyclopenta[b]triphenylene-13-ol hydrochloride] | 5.1 ng/mL | 3.7 ng/mL | > 1000 ng/mL | 2.6 ng/mL | 2.7 ng/mL |  |  |  |  |  |  |  |
| CCc1ccc2c3c(c4cc(OC)c(OC)cc4c2c1)CN1CCC[C@H]1[C@H]3O.Cl [Compound 3, (12aS,13S)-3-ethyl-6,7-dimethoxy-9,10,11,12,12a,13-hexahydro-9a-aza-cyclopenta[b]triphenylene-13-ol hydrochloride] | 219 ng/mL | 50.8 ng/mL | > 10000 ng/mL | 24.5 ng/mL | 105 ng/mL |  |  |  |  |  |  |  |
| COc1cc2c3c(c4ccc(F)cc4c2cc1OC)[C@H](O)[C@@H]1CCCN1C3.Cl [Compound 5, (12aS,13S)-3-fluoro-6,7-dimethoxy-9,10,11,12,12a,13-hexahydro-9a-aza-cyclopenta[b]triphenylene-13-ol hydrochloride] | 39.2 ng/mL | 7.2 ng/mL | > 1000 ng/mL | 4.1 ng/mL | 20.7 ng/mL |  |  |  |  |  |  |  |
| COc1cc2c3c(c4ccc(OC(=O)C(C)C)cc4c2cc1OC)[C@H](O)[C@@H]1CCCN1C3.Cl [Compound 9, isobutyric acid(12aS,13S)-13-hydroxy-6,7-dimethoxy-9,10,11,12,12a,13-hexahydro-9a-aza-cyclopenta[b]triphenylene-3-yl ester hydrochloride] |  |  |  |  |  | 0.36 ng/mL | 0.38 ng/mL | >100 ng/mL | 0.57 ng/mL | 0.26 ng/mL |  |  |
| COc1cc2c3c(c4ccc(OC(=O)C(C)(C)C)cc4c2cc1OC)[C@H](O)[C@@H]1CCCN1C3.Cl [Compound 10, 2,2-dimethyl-propionic acid(12aS,13S)-13-hydroxy-6,7-dimethoxy-9,10,11,12,12a,13-hexahydro-9a-aza-cyclopenta[b]triphenylene-3-yl ester hydrochloride] |  |  |  |  |  | 0.73 ng/mL | 0.47 ng/mL | >100 ng/mL | 0.14 ng/mL | 0.49 ng/mL |  |  |
| COc1cc2c3c(c4ccc(OC(=O)c5cccnc5)cc4c2cc1OC)[C@H](O)[C@@H]1CCCN1C3.Cl [Compound 11, nicotinic acid(12aS,13S)-13-hydroxy-6,7-dimethoxy-9,10,11,12,12a,13-hexahydro-9a-aza-cyclopenta[b]triphenylene-3-yl ester hydrochloride] |  |  |  |  |  | 0.50 ng/mL | 0.44 ng/mL | >10 ng/mL | 0.028 ng/mL | 0.48 ng/mL |  |  |
| COc1cc2c3c(c4ccc(OC(=O)c5ccncc5)cc4c2cc1OC)[C@H](O)[C@@H]1CCCN1C3.Cl [Compound 12, isonicotinic acid(12aS,13S)-13-hydroxy-6,7-dimethoxy-9,10,11,12,12a,13-hexahydro-9a-aza-cyclopenta[b]triphenylene-3-yl ester hydrochloride] |  |  |  |  |  | 0.51 ng/mL | 0.62 ng/mL | >100 ng/mL | 0.19 ng/mL | 0.33 ng/mL |  |  |
| CCC(=O)Oc1ccc2c3c(c4cc(OC)c(OC)cc4c2c1)CN1CCC[C@H]1[C@H]3O.Cl [Compound 15, propionic acid(12aS,13S)-13-hydroxy-6,7-dimethoxy-9,10,11,12,12a,13-hexahydro-9a-aza-cyclopenta[b]triphenylene-3-yl ester hydrochloride] |  |  |  |  |  | 0.39 ng/mL | 0.62 ng/mL | >100 ng/mL | 0.35 ng/mL | 0.20 ng/mL |  |  |
| COc1cc2c3c(c4ccc(NC(=O)OCC(C)C)cc4c2cc1OC)[C@H](O)[C@@H]1CCCN1C3.Cl [Compound 18, ((12aS,13S)-13-hydroxy-6,7-dimethoxy-9,10,11,12,12a,13-hexahydro-9a-aza-cyclopenta[b]triphenylene-3-yl)-carbamic acid isobutyl ester hydrochloride] | 27.6 ng/mL | 18.1 ng/mL | > 1000 ng/mL | 16.2 ng/mL | 15.5 ng/mL |  |  |  |  |  |  |  |
| COc1cc2c3c(c4ccc(OC(=O)c5ccoc5)cc4c2cc1OC)[C@H](O)[C@@H]1CCCN1C3.Cl [Compound 22, furan-3-carboxylic acid(12aS,13S)-13-hydroxy-6,7-dimethoxy-9,10,11,12,12a,13-hexahydro-9a-aza-cyclopenta[b]triphenylene-3-yl ester hydrochloride] |  |  |  |  |  | 2.8 ng/mL | 1.9 ng/mL | >1000 ng/mL | 1.1 ng/mL | 1.7 ng/mL |  |  |
| COc1cc2c3c(c4ccc(OC(=O)c5ccsc5)cc4c2cc1OC)[C@H](O)[C@@H]1CCCN1C3.Cl [Compound 23, thiophene-3-carboxylic acid(12aS,13S)-13-hydroxy-6,7-dimethoxy-9,10,11,12,12a,13-hexahydro-9a-aza-cyclopenta[b]triphenylene-3-yl ester hydrochloride] |  |  |  |  |  | 3.1 ng/mL | 1.4 ng/mL | >100 ng/mL | 0.76 ng/mL | 4.1 ng/mL |  |  |
| COc1cc2c3c(c4ccc(OC(=O)CCCCCCC(=O)Oc5ccc6c7c(c8cc(OC)c(OC)cc8c6c5)CN5CCC[C@H]5[C@H]7O)cc4c2cc1OC)[C@H](O)[C@@H]1CCCN1C3.Cl [Compound 24, octanedionic acid(9S,12S)-13-hydroxy-6,7-dimethoxy-9,10,11,12,12a,13-hexahydro-9a-aza-cyclopenta[b]triphenylene-3-yl ester(12aS,13S)-13-hydroxy-6,7-dimethoxy-9,10,11,12,12a,13-hexahydro-9a-aza-cyclopenta[b]triphenylene-3-yl ester hydrochloride] |  |  |  |  |  | 0.77 ng/mL | 0.24 ng/mL | >100 ng/mL | 0.18 ng/mL | 0.90 ng/mL |  |  |
| COc1cc2c3c(c4ccc(N)cc4c2cc1OC)[C@H](O)[C@@H]1CCCN1C3.Cl [Compound 25, (12aS,13S)-3-amino-6,7-dimethoxy-9,10,11,12,12a,13-hexahydro-9a-aza-cyclopenta[b]triphenylene-13-ol hydrochloride] | 2.3 ng/mL | 0.28 ng/mL | > 100 ng/mL | 0.4 ng/mL | 1.1 ng/mL |  |  |  |  |  |  |  |
| S=C(S)N1CCCC1 [PDTC, pyrrolidine dithiocarbamate, reference compound] |  |  |  |  |  |  |  |  |  |  | > 10000 ng/mL | 2400 ng/mL (≈ 16.3 µM) |
